Experiments:
Assay type in all cases: cell-based
[1] = test system: human prostatic cancer cell line PC-3; assay: MTT assay, growth inhibition of PC-3 cells; details: 96-hr culture, read-out: IC50 ± SD, PC-3
Experimental: (§1) The inhibition of the compounds of the present invention on growth of a variety of human tumor cell lines is evaluated by MTT assay.
(§2) Method: cells in exponential phase (human gastric cancer cell line SGC-7901, human non-small cell lung cancer cell line A549, human breast cancer cell line BT-549, human prostatic cancer cell line PC-3, human colon cancer cell line HT-29, and human liver cancer cell line SMMC-7721) are seeded at a density of 1.5×10^4 in a 96-well plate. After 24-hr culture, the cells are grown to confluent and the previous culture medium is aspirated. The test includes a control group, and a treatment group. In the control group, a 1640 medium containing 10% fetal bovine serum is replenished; and in the treatment group, a medium containing 100 μM, 50 μM, 10 μM, 1 μM, 0.1 μM, 0.01 μM, 0.001 μM, 0.0001 μM, and 0.00001 μM test compound is replenished. After 96-hr culture, 5 mg/mL MTT is added, and cultured in a CO2 incubator for another 4 hrs. Then, 100 μL of the supernatant is aspirated from the upper portion of the culture medium, and placed in the dark for 10 min after 100 μL DMSO is added. The absorbance (at 570 nm) is measured on a microplate reader (available from Sunrise Co., Ltd.), and the cell viability is calculated from the absorbance. 6 replicate wells are set for each treatment. Cell viability (%)=ΔODtreatment/ΔODcontrol×100.
(§3) The ID50 values of six compounds for inhibiting the growth of numerous human tumor cell lines are calculated by Sigmaplot 10.0 software and are shown in Table 1.

[2] = test system: human non-small cell lung cancer cell line A549; assay: MTT assay, growth inhibition of A549 cells; details: 96-hr culture, read-out: IC50 ± SD, A549
Experimental: as §1, §2, §3

[3] = test system: human colon cancer cell line HT-29; assay: MTT assay, growth inhibition of HT-29 cells; details: 96-hr culture, read-out: IC50 ± SD, HT-29
Experimental: as §1, §2, §3

[4] = test system: human breast cancer cell line BT-549; assay: MTT assay, growth inhibition of BT-549 cells; details: 96-hr culture, read-out: IC50 ± SD, BT-549
Experimental: as §1, §2, §3

[5] = test system: human gastric cancer cell line SGC-7901; assay: MTT assay, growth inhibition of SGC-7901 cells; details: 96-hr culture, read-out: IC50 ± SD, SGC-7901
Experimental: as §1, §2, §3

[6] = test system: human liver cancer cell line SMMC-7721; assay: MTT assay, growth inhibition of SMMC-7721 cells; details: 96-hr culture, read-out: IC50 ± SD, SMMC-7721
Experimental: as §1, §2, §3

Row | IC50 [1] [nM] | IC50 [2] [nM] | IC50 [3] [nM] | IC50 [4] [nM] | IC50 [5] [nM] | IC50 [6] [nM] | Structure (SMILES)
1 | 510 ± 60 | 2610 ± 340 | 990 ± 40 | 1270 ± 80 | 2150 ± 140 | 1690 ± 180 | CS(=O)(=O)N1CCN(Cc2cc3c(N4CCOCC4)nc(-c4cccc5[nH]ccc45)nn3c2)CC1 [Compound I-1]
2 | 440 ± 80 | 2950 ± 450 | 160 ± 30 | 350 ± 150 | 1350 ± 280 | 2530 ± 1490 | CS(=O)(=O)N1CCN(Cc2cc3c(N4CCOCC4)nc(-c4cccc5[nH]ncc45)nn3c2)CC1 [Compound I-2]
3 | 1170 ± 140 | 620 ± 60 | 1210 ± 40 | 610 ± 70 | 830 ± 30 | 630 ± 110 | CS(=O)(=O)N1CCN(Cc2cc3c(N4CCOCC4)nc(-c4cnc(N)nc4)nn3c2)CC1 [Compound I-4]
4 | 140 ± 90 | 1030 ± 140 | 290 ± 50 | 110 ± 20 | 1420 ± 230 | 1280 ± 230 | CC(=O)N1CCN(Cc2cc3c(N4CCOCC4)nc(-c4cnc(N)nc4)nn3c2)CC1 [Compound I-8]
5 | 250 ± 120 | 1500 ± 200 | 850 ± 180 | 290 ± 130 | 1490 ± 150 | 2050 ± 280 | C[C@@H](O)C(=O)N1CCN(Cc2cc3c(N4CCOCC4)nc(-c4cnc(N)nc4)nn3c2)CC1 [Compound I-11]
6 | 220 ± 20 | 1980 ± 340 | 780 ± 20 | 590 ± 220 | 9370 ± 1430 | 2450 ± 190 | CS(=O)(=O)N1CCN(Cc2cc3nc(-c4cccc5[nH]ncc45)nc(N4CCOCC4)c3s2)CC1 [GDC-0941, reference compound]

The next lines start with the compound.

Row | Structure (SMILES) | IC50 [1] [nM] | IC50 [2] [nM] | IC50 [3] [nM] | IC50 [4] [nM] | IC50 [5] [nM] | IC50 [6] [nM]
7 | CS(=O)(=O)N1CCN(Cc2cc3c(N4CCOCC4)nc(-c4ccnc5[nH]ccc45)nn3c2)CC1 [Compound I-3] | 780 ± 360 | 2730 ± 520 | 960 ± 310 | 1990 ± 70 | 2520 ± 60 | 1720 ± 70
8 | CS(=O)(=O)N1CCN(C(=O)c2cc3c(N4CCOCC4)nc(-c4cccc5[nH]ncc45)nn3c2)CC1 [Compound I-5] | 220 ± 10 | 1960 ± 330 | 730 ± 20 | 590 ± 220 | 3350 ± 460 | 2150 ± 190
9 | CC(C)(O)c1cc2c(N3CCOCC3)nc(-c3cccc4[nH]ncc34)nn2c1 [Compound I-6] | 1050 ± 640 | 1350 ± 280 | 2150 ± 190 | 2600 ± 670 | 1010 ± 20 | 1840 ± 320
10 | CCS(=O)(=O)N1CCN(Cc2cc3c(N4CCOCC4)nc(-c4cnc(N)nc4)nn3c2)CC1 [Compound I-7] | 290 ± 130 | 1930 ± 230 | 470 ± 90 | 340 ± 40 | 2390 ± 480 | 1630 ± 390
11 | Nc1ncc(-c2nc(N3CCOCC3)c3cc(CN4CCN(C(=O)C5CC5)CC4)cn3n2)cn1 [Compound I-9] | 930 ± 180 | 3210 ± 380 | 870 ± 160 | 410 ± 110 | 2510 ± 350 | 3140 ± 380
12 | C[C@H](O)C(=O)N1CCN(Cc2cc3c(N4CCOCC4)nc(-c4cnc(N)nc4)nn3c2)CC1 [Compound I-10] | 200 ± 110 | 1480 ± 190 | 310 ± 80 | 130 ± 30 | 1290 ± 140 | 1050 ± 240

Reference: patent publication US9440981B2, “Pyrrolo[2, 1-F] [1,2,4]triazine derivative and use thereof for treating tumors” (PHARMABLOCK (NANJING) R&D CO. LTD., priority 2012, dated 2016)
